Measurements published in paper PMC10160982 (Proceedings of the National Academy of Sciences of the …, 2023).

Target: SARS-CoV-2 M^pro (Severe acute respiratory syndrome coronavirus 2, UniProt P0DTD1)
Assay: FRET-based SARS-CoV-2 Mpro inhibition activity assay
Assay type: biochemical
Conditions: SARS-CoV-2 M^pro inhibition IC50, FRET-based protease assay

COc1cc(O)ccc1/C=C/C(=O)c1ccc(O)cc1 [Echinatin]
IC50: 22.5 µM
